The values below come from patent US20070041915A1, “Use of a biguanide derivative for protecting skin against uvb radiation” (PHARMAMENS, priority 2003, published 2007).

In one data set the test system is Langerhans cells. The data set is described as follows: Protective activity against UVB-induced immunosuppressive photo effect (depletion of Langerhans cells) on survival-maintained human skin explants, anti-CD1a labelling. It counts as cell-based. As to conditions: histology and immunolabelling of Langerhans cells 24 hours after irradiation; preventive application. As for the experimental part: The purpose of this study is to evidence the protective activity of metformin against an immunosuppressive photo effect (depletion of Langerhans cells) induced by UVB radiation on a survival-maintained human skin model.
The immunosuppressive photo activity induced by UVB is, assessed by counting the number of Langerhans cells in a separated epidermis and in tissue sections after anti-CDla labelling.
27 skin explants were prepared and maintained in-survival in a culture medium. They were divided among 9 batches of three explants: three reference batches, three excipient batches and three ointment batches containing 1% metformin (formulation example 3).
3 batches (reference, excipient and ointment) were exposed to UVB radiation of 4 J/cm^2, three batches (reference, excipient and ointment) to UVB radiation of 6 J/cm^2 and the three last batches were placed in darkness during the time of irradiation.
Daily application of the ointment was 4 mg per explant for 3 days before irradiation.
Analysis of the reference and treated explants was performed 24 h after irradiation.
Anti-CDla immunolabelling of Langerhans cells was made in the separated epidermis and in tissue sections.

For data set [1] the following is noted: cited from earlier work.

Structures are written as SMILES.

For `CN(C)C(=N)N=C(N)N` [metformin], the “protective activity against UVB” value in the data set on Langerhans cells was “protective action”. In addition, in data set [1] (at hypoglycaemic doses), the toxicity entry was “absence of toxicity”. In addition, in data set [1] (in vivo), the chronic toxicity result is “practically zero” and the tolerance entry was “good”.
